{
  "source": "patent US9132082B2",
  "about": "“Compositions and methods for inhibiting gastric acid secretion” (Vecta, Ltd., priority 2005, dated 2015)",
  "key": {"[1]": {"test_system": "gastric acid secretion", "test": "3-way crossover clinical trial of Cap-in-Cap OMP/SA versus OMP, 24 hour intra-gastric pH", "format": "in vivo, human", "details": "OMP/SA at bedtime without food, OMP 20 mg before breakfast", "protocol": "Thirty-six (36), H. pylori negative, healthy human volunteers received OMP 20 mg/SA 300 mg or OMP 40 mg/SA 300 mg at bedtime without food formulated as Cap-in-Cap capsules and OMP 20 mg dosed on an empty stomach before breakfast. These drugs were tested in a 3-way, randomized crossover study. […] Each treatment was administered once daily, for 5 consecutive days with a washout period of 21-25 days between treatments. 24 Hour intra-gastric pH monitoring was performed following the fifth dose (day 5)."}, "[2]": {"test_system": "gastric pH", "test": "Further clinical study: omeprazole and SA capsules co-administered at bedtime, 24 h gastric pH", "format": "in vivo, human", "details": "10:00 pm on empty stomach", "protocol": "In a further clinical study; healthy human volunteers were administered with Omeprazole and SA capsules which were co-administered at bed-time: Treatment T1-40 mg Omeprazole plus 600 mg SA; Treatment T2-40 mg Omeprazole plus 300 mg SA; Treatment T3-20 mg Omeprazole plus 300 mg SA. The study included gastric pH measurements on day 1 (first dose), day 3 (third dose) and day 5 (fifth dose). Study medications were administered at 10:00 pm on empty stomach and pH measurements were recorded for 24 hrs. The percentage time of gastric pH above 4 following the administration of SA and Omeprazole was calculated after the first dose, the third dose and the fifth dose."}, "[3]": {"test_system": "nocturnal gastric acid secretion", "test": "Clinical study: bedtime omeprazole with succinic acid one hour later, gastric pH probe", "format": "in vivo, human", "details": "average n = 7", "protocol": "Succinic Acid was administered one hour following Omeprazole administration. Gastric pH was measured on Day 1 and 5 using a pH probe. The pH probe was inserted into the distal portion of the stomach and located 20 cm below the lower esophageal sphincter. Baseline measurements of gastric pH were performed before omeprazole administration and during the following 24 hours. Standard meals were administered during pH monitoring. Blood samples for PK analysis of Omeprazole were drawn on Day 1 and 5. After a washout period of at least 14 days, the same subjects were administered with Omeprazole 40 mg alone."}, "[4]": {"test_system": "gastric acid output", "details": "extracted from fermented alcoholic beverages; Teyssen et al.; cited from earlier work"}, "[5]": {"test_system": "frog mucosa", "details": "ex vivo model of frog mucosa; cited from earlier work"}, "[6]": {"test_system": "gastric acid secretion", "test": "Conscious pylorus-ligated rats: pantoprazole alone or with succinic or maleic acid", "format": "in vivo", "details": "maleic acid 14.7 mg/kg with pantoprazole 3 mg/kg; FIG. 4", "protocol": "This experimental model permits the analysis of the effect of drugs on gastric acid secretion in conscious animals and avoids the effect of anesthesia on gastric acid secretion. […] The ligature was placed around the esophagus, the stomach removed and gastric content was collected. Following centrifugation, the gastric output and the pH of the gastric juice samples was determined."}, "[7]": {"test_system": "gastric acid secretion", "details": "15 mg/kg per os, pylorus ligated 30 min later, gastric juice after 60 min; FIG. 1", "protocol": "Rats were administered (per os) with 15 mg/kg of sodium succinate (Na-SA) using gavage. 30 minutes later the rats were anesthetized with ketamine/domitor and the pylorus was ligated. Following additional 60 min, gastric juice was collected from the gastric lumen. Acid output was determined by titration with NaOH. Total acid output expressed in mEq HCl was calculated by multiplying the sample volume by the acid concentration. Results are expressed as means±SEM of 12 animals from each experimental group."}, "[8]": {"test_system": "gastric acid secretion", "details": "administered after ligation of the pylorus; FIG. 5", "protocol": "The possibility that succinic acid induces gastric acid secretion via local effect on the gastric lumen was tested in animals in which sodium succinate was administered after the ligation of the pylorus."}, "[9]": {"details": "Day 1, bedtime dosing without a meal"}, "[10]": {"details": "Day 5, bedtime dosing without a meal"}},
  "data": [
    {"smiles": "COc1ccc2[nH]c([S+]([O-])Cc3ncc(C)c(OC)c3C)nc2c1", "note": "(stereo not drawn) [Omeprazole, omeprazole]", "values": [
      {"measurement": "Nighttime % time pH < 3", "setting": "[1]; 12 am-8 am, day 5", "value": 65.5, "unit": "%"},
      {"measurement": "Nighttime % time pH > 4", "setting": "[1]; 12 am-8 am, day 5", "value": 27.2, "unit": "%"},
      {"measurement": "Nighttime % time pH > 5", "setting": "[1]; 12 am-8 am, day 5", "value": 11.5, "unit": "%"},
      {"measurement": "24-hour % time pH < 3", "setting": "[1]; day 5 (fifth dose)", "value": 31.2, "unit": "%"},
      {"measurement": "24-hour % time pH > 4", "setting": "[1]; day 5 (fifth dose)", "value": 47.6, "unit": "%"},
      {"measurement": "24-hour % time pH > 5", "setting": "[1]; day 5 (fifth dose)", "value": 21.6, "unit": "%"},
      {"measurement": "% time with pH > 4 (nocturnal hours only)", "setting": "[2]; Fifth dose", "value": "Fifth dose: 49%"},
      {"measurement": "% time with pH > 4 (total 24 h)", "setting": "[2]; Fifth dose", "value": "Fifth dose: 64%"},
      {"measurement": "% time with pH > 4 (nocturnal hours only)", "setting": "[2]; First dose", "value": "First dose: 25%"},
      {"measurement": "% time with pH > 4 (total 24 h)", "setting": "[2]; First dose", "value": "First dose: 41%"},
      {"measurement": "2:00-4:00 AM (% time pH > 4)", "setting": "[3]; [9]", "value": 32.72, "unit": "%"},
      {"measurement": "4:00-6:00 AM (% time pH > 4)", "setting": "[3]; [9]", "value": 52.30, "unit": "%"},
      {"measurement": "12:00-2:00 AM (% time pH > 4)", "setting": "[3]; [9]", "value": 29.57, "unit": "%"},
      {"measurement": "2:00-4:00 AM (% time pH > 4)", "setting": "[3]; [10]", "value": 53.11, "unit": "%"},
      {"measurement": "4:00-6:00 AM (% time pH > 4)", "setting": "[3]; [10]", "value": 64.94, "unit": "%"},
      {"measurement": "12:00-2:00 AM (% time pH > 4)", "setting": "[3]; [10]", "value": 52.31, "unit": "%"}
    ]},
    {"smiles": "O=C(O)CCC(=O)O", "note": "[Succinic acid, succinic acid]", "values": [
      {"measurement": "gastric acid output in humans", "setting": "[4]", "value": "stimulate gastric acid output"},
      {"measurement": "proton secretion", "setting": "[5]", "value": "may stimulates proton secretion"}
    ]},
    {"smiles": "O=C(O)CCC(=O)C(=O)O", "note": "[alpha-ketoglutarate]", "values": [
      {"measurement": "proton secretion", "setting": "[5]", "value": "may stimulates proton secretion"}
    ]},
    {"smiles": "O=C(O)CC(O)C(=O)O", "note": "(stereo not drawn) [malate]", "values": [
      {"measurement": "proton secretion", "setting": "[5]", "value": "may stimulates proton secretion"}
    ]},
    {"smiles": "O=C(O)/C=C\\C(=O)O", "note": "[maleic acid]", "values": [
      {"measurement": "gastric acid output in humans", "setting": "[4]", "value": "stimulate gastric acid output"},
      {"measurement": "inhibitory effect of pantoprazole on gastric acid secretion", "setting": "[6]", "value": "enhanced the inhibitory effect of pantoprazole"}
    ]},
    {"smiles": "O=C([O-])CCC(=O)[O-].[Na+].[Na+]", "note": "[sodium succinate]", "values": [
      {"measurement": "gastric acid secretion (total acid output)", "setting": "[7]", "value": "significantly enhanced gastric acid secretion"},
      {"measurement": "acid secretion", "setting": "[8]", "value": "capable of inducing acid secretion"}
    ]}
  ]
}
